# According to patent US9346762B2, “Pyrazole derivatives and their use as LPAR5 antagonists” (SANOFI, priority 2012, dated 2016):
# Columns and labels:
# Type in all cases: cell-based
# [1] = test system: human mast cell line HMC-1 (LPA receptor LPAR5); assay: FLIPR assay, intracellular Ca2+ release in human mast cell line HMC-1; details: HMC1, LPA-stimulated Ca2+ release, HMC-1 cells, compound added 10 minutes prior to LPA
# Excerpt: (§1) B) Use of the Fluorometric Imaging Plate Reader (FLIPR) Assay for the Determination of Intracellular Ca^2+ Release in Human Mast Cell Line HMC-1 and the Murine Microglia cell line BV-2
# (§2) The ability of the compounds of the formula Ito inhibit or bind the LPA receptor LPAR5 can be assessed by determining the intracellular Ca^2+ release in human or animal cells. For the analysis of activating potential of LPA and the inhibitory effects of compounds of the formula I two cell lines were used with high LPAR5 expression, the human mast cell line HMC-1 and the murine microglia cell line BV-2 (FIGS. 1 and 2). For the FLIPR assay using human mast cells in a 96-well-format, HMC-1 suspension cells from flask culture were harvested, resuspended and counted. 14×10^6 HMC-1 cells were transferred into a new 50 ml tube, centrifuged for 3 minutes at 540×g. The resulting cell pellet at the bottom of the tube was resuspended with 15 ml loading buffer (loading buffer contained HBSS buffer (pH 7.4), 0.1% BSA (bovine serum albumin), 2 μM FLUO-4 dye; HBSS buffer (pH 7.4) contained 1×HBSS, 20 mM HEPES, 0.01% Pluronic F-127, 2.5 mM Probenicid).
# Cells in loading buffer were incubated for 45-60 minutes at 37° C. After incubation cells were centrifuged for 3 minutes at 540×g and resuspended with 21 ml of HBSS buffer (pH 7.4). Each well of a poly-D-lysine coated 96-well-plate was filled with 150 μl cell solution, an equivalent of 100 000 cells/well. The 96-well-plate was centifuged for 2 minutes at 100×g (without brake) prior a recovery time of 30 minutes at 37° C. After this procedure cells were stimulated with LPA (in HBSS pH 7.4 and 0.1% BSA) to determine the EC50 of LPA in HMC-1 cells. For the determination of the inhibitory effect of compounds of the formula I, test compounds were added to the cells in the 96-well-plate 10 minutes prior the addition of LPA. Results of the assay are expressed as % activation, and are calculated using maximum peak of activation (Amax). The IC50 data of the above described FLIPR assay using human mast cell line HMC-1 for exemplary compounds of the present invention are shown in Table 2. Adherent BV-2 cells were seeded onto poly-D-lysine coated 96-well-plates (100000 cells/well) the day before performing the FLIPR assay. The density of the cells in the 96-well-plate at the day of the FLIPR assay should be 90%. After aspiration of the culture media, BV-2 cells were incubated for 30 minutes at 37° C. with loading buffer and recovered in 150 μl HBSS buffer for 30 minutes at 37° C. After this procedure cells were stimulated with LPA (in HBSS pH 7.4 and 0.1% BSA) to determine the EC50 of LPA in BV-2 cells. For the determination of the inhibitory effect of compounds of the formula I, test compounds were added to the cells in the 96-well-plate 10 minutes prior the addition of LPA. The IC50 data of the above described FLIPR assay using the murine microglia cell line BV-2 for exemplary compounds of the present invention are shown in Table 3.
# [2] = test system: murine microglia cell line BV-2 (LPA receptor LPAR5); assay: FLIPR assay, intracellular Ca2+ release in murine microglia cell line BV-2; details: Mus musculus; LPA-stimulated Ca2+ release, BV-2 cells, compound added 10 minutes prior to LPA
# Excerpt: as §1, §2
# Cells in loading buffer were incubated for 45-60 minutes at 37° C. […] Results of the assay are expressed as % activation, and are calculated using maximum peak of activation (Amax). […]
# [3] = test system: washed human blood platelets (platelet LPA receptor LPAR5); assay: Aggregation assay for washed human blood platelets (LPA-induced); details: reduction of maximal LPA-induced aggregation, 5 min preincubation at 37° C.
# Method: A) Aggregation Assay for Washed Human Blood Platelets (Thrombocytes)
# Whole blood was collected from healthy volunteers using 3×20 ml syringes containing each 1/10 volume of buffered citrate. The anticoagulated whole blood was transferred into 50 ml polypropylene conical tubes (30 ml per tube). The tubes were centrifuged for 10 minutes at 150×g at room temperature without using the centrifuge brake. This procedure results in a lower phase of cellular components and a supernatant (upper phase) of platelet rich plasma (PRP). The PRP phase was collected from each tube and pooled for each donor. To avoid carry over of cellular components following first centrifugation, approximately 5 ml of PRP was left in the tube. The platelet concentration was determined using a ABX Micros 60 counter. The PRP phase was transferred to a new 50 ml tube. After 10 minutes standing at room temperature, 1 μl PGI2 (1 mM in Tris-HCl/pH 8.8) and 180 μl ACD/A were added per ml PRP. The PRP was then transferred to new 10 ml tube and centrifuged for 10 minutes at 500×g. After centrifugation a cellular pellet is visible at the bottom of the tube. The supernatant was carefully discarded and the cellular pellet, consisting of human blood platelets was then dissolved in 10 ml buffer T (buffer T composition: 145 mM NaCl, 5 mM KCl, 0.1 mM MgCl2×6 H2O, 15 mM HEPES, 5.5 mM glucose, pH 7.4). Platelet concentration in this solution was determined and buffer T was added to obtain a final concentration of 3.5×10^5 platelets per ml.
# After 10 minutes at room temperature, 1 μl PGI2 per ml platelet solution was added and distributed into new 10 ml tubes. After a centrifugation step, 10 minutes at 500×g, supernatant was discarded and the platelets were resuspended in buffer T to a final concentration of 3.5×10^5 platelets per ml buffer T. Before use, platelet-containing buffer equilibrated for 30 minutes at room temperature. The human platelet aggregation assay was performed in single use cuvettes using the Platelet Aggregation Profiler® (PAP-4 or -8E, BIO/DATA Corporation). For a single experiment, 320 μl of platelet solution were transferred into an assay cuvette, 20 μl of calcium citrate solution (10 mM in H2O) and 20 μl of fibrinogen solution (20 mg/ml H2O) were added. The aggregation assay was performed in the assay cuvette at 37° C. and with 1.200 rpm stirring. To determine the EC50, eight assay cuvettes were loaded as described above with different concentrations of LPA. Aggregation was measured over 6 minutes at 37° C. with 1200 rpm (revolutions per minute) stirring. Results of the assay are expressed as % activation, and are calculated using maximum aggregation (Tmax) or area under curve (AUC) of the absorbance over 6 minutes. The inhibitory effect (IC50) of the test compounds was determined as the reduction of the maximal aggregation. Test compound was added prior starting the experiment with an incubation time of the test compound of 5 minutes at 37° C. with 1200 rpm stirring. The IC50 data of the above described platelet aggregation assay using human washed platelets for exemplary compounds of the present invention are shown in Table 1.
Structure (SMILES),IC50 [1] [µM],IC50 [2] [µM],IC50 [3] [µM]
"Cc1c(COCC(=O)NCc2ccc(C(=O)O)cc2)nn(-c2ccc(Cl)cc2Cl)c1-c1ccc(Cl)cc1 [Example 11, 4-({2-[5-(4-Chloro-phenyl)-1-(2,4-dichloro-phenyl)-4-methyl-1H-pyrazol-3-ylmethoxy]-acetylamino}-methyl)-benzoic acid]",8.6,–,–
"Cc1c(COC(C)(C)C(=O)O)nn(-c2ccc(Cl)cc2Cl)c1-c1ccc(Cl)cc1 [Example 1, 2-[5-(4-Chloro-phenyl)-1-(2,4-dichloro-phenyl)-4-methyl-1H-pyrazol-3-ylmethoxy]-2-methyl-propionic acid]",8.3,–,–
"Cc1c(COC(C)(C)C(=O)NCc2ccc(C(=O)O)cc2)nn(-c2ccc(Cl)cc2Cl)c1-c1ccc(C(F)(F)F)cc1 [Example 10, 4-({2-[1-(2,4-Dichloro-phenyl)-4-methyl-5-(4-trifluoromethyl-phenyl)-1H-pyrazol-3-ylmethoxy]-2-methyl-propionylamino}-methyl)-benzoic acid]",0.03,0.2,–
"Cc1c(COC(C)C(=O)NCc2ccc(C(=O)O)cc2)nn(-c2ccc(Cl)cc2Cl)c1-c1ccc(Cl)cc1 (stereo not shown) [Example 15, 4-({2-[5-(4-Chloro-phenyl)-1-(2,4-dichloro-phenyl)-4-methyl-1H-pyrazol-3-ylmethoxy]-propionylamino}-methyl)-benzoic acid]",8.8,–,6.5
"CCC(OCc1nn(-c2ccc(Cl)cc2Cl)c(-c2ccc(Cl)cc2)c1C)C(=O)O (stereo not shown) [Example 7, 2-[5-(4-Chloro-phenyl)-1-(2,4-dichloro-phenyl)-4-methyl-1H-pyrazol-3-ylmethoxy]-butyric acid]",11.4,–,4.7
"Cc1c(COC(C)(C)C(=O)NCc2ccc(C(=O)O)cc2)nn(-c2ccc(Cl)cc2)c1-c1ccc(C(F)(F)F)cc1 [Example 14, 4-({2-[1-(4-Chloro-phenyl)-4-methyl-5-(4-trifluoromethyl-phenyl)-1H-pyrazol-3-ylmethoxy]-2-methyl-propionylamino}-methyl)-benzoic acid]",3.4,–,–
"Cc1c(COC(C)C(=O)Nc2ccc(C(=O)O)cc2)nn(-c2ccc(Cl)cc2Cl)c1-c1ccc(C(F)(F)F)cc1 (stereo not shown) [Example 16, 4-{2-[1-(2,4-Dichloro-phenyl)-4-methyl-5-(4-trifluoromethyl-phenyl)-1H-pyrazol-3-ylmethoxy]-propionylamino}-benzoic acid]",4.1,–,–
"Cc1c(COC(C)(C)C(=O)NCc2ccc(C(=O)O)cc2)nn(-c2ccc(Cl)cc2Cl)c1-c1ccc(Cl)cc1 [Example 9, 4-({2-[5-(4-Chloro-phenyl)-1-(2,4-dichloro-phenyl)-4-methyl-1H-pyrazol-3-ylmethoxy]-2-methyl-propionylamino}-methyl)-benzoic acid]",1.3,1.8,2.9
"Cc1c(COC2(C(=O)O)CCCC2)nn(-c2ccc(Cl)cc2Cl)c1-c1ccc(Cl)cc1 [Example 3, 1-[5-(4-Chloro-phenyl)-1-(2,4-dichloro-phenyl)-4-methyl-1H-pyrazol-3-ylmethoxy]-cyclopentanecarboxylic acid]",8.8,–,–
"CC(OCc1cn(-c2ccccc2)nc1-c1ccccc1)C(=O)Nc1ccc(C(=O)O)cc1 (stereo not shown) [Example 22, 4-[2-(1,3-Diphenyl-1H-pyrazol-4-ylmethoxy)-propionylamino]-benzoic acid]",16,–,–

# The remaining molecules from weak to strong by IC50 [1], led by results:
IC50 [1] [µM],IC50 [2] [µM],IC50 [3] [µM],Structure (SMILES)
6.6,–,–,"Cc1c(COC(C)(C)C(=O)O)nn(-c2ccc(Cl)cc2Cl)c1-c1ccc(C(F)(F)F)cc1 [Example 4, 2-[1-(2,4-Dichloro-phenyl)-4-methyl-5-(4-trifluoromethyl-phenyl)-1H-pyrazol-3-ylmethoxy]-2-methyl-propionic acid]"
6.3,–,4.1,"Cc1c(COC(C)C(=O)O)nn(-c2ccc(Cl)cc2Cl)c1-c1ccc(Cl)cc1 (stereo not shown) [Example 8, 2-[5-(4-Chloro-phenyl)-1-(2,4-dichloro-phenyl)-4-methyl-1H-pyrazol-3-ylmethoxy]-propionic acid]"
6.3,–,4.3,"CCC(OCc1nn(-c2ccc(Cl)cc2Cl)c(-c2ccc(Cl)cc2)c1C)C(=O)NCc1ccc(C(=O)O)cc1 (stereo not shown) [Example 12, 4-({2-[5-(4-Chloro-phenyl)-1-(2,4-dichloro-phenyl)-4-methyl-1H-pyrazol-3-ylmethoxy]-butyrylamino}-methyl)-benzoic acid]"
5.2,–,–,"Cc1c(COC(C)C(=O)Nc2ccc(C(=O)O)cc2)nn(-c2ccccc2Cl)c1-c1ccc(C(F)(F)F)cc1 (stereo not shown) [Example 20, 4-{2-[1-(2-Chloro-phenyl)-4-methyl-5-(4-trifluoromethyl-phenyl)-1H-pyrazol-3-ylmethoxy]-propionylamino}-benzoic acid]"
4.2,–,15.9,"Cc1c(COC(C(=O)Nc2ccc(C(=O)O)cc2)C(C)C)nn(-c2ccc(Cl)cc2Cl)c1-c1ccc(Cl)cc1 (stereo not shown) [Example 17, 4-{2-[5-(4-Chloro-phenyl)-1-(2,4-dichloro-phenyl)-4-methyl-1H-pyrazol-3-ylmethoxy]-3-methyl-butyrylamino}-benzoic acid]"
3.8,–,–,"Cc1c(COC(C)C(=O)Nc2ccc(C(=O)O)cc2)nn(-c2ccc(Cl)cc2)c1-c1ccc(C(F)(F)F)cc1 (stereo not shown) [Example 18, 4-{2-[1-(4-Chloro-phenyl)-4-methyl-5-(4-trifluoromethyl-phenyl)-1H-pyrazol-3-ylmethoxy]-propionylamino}-benzoic acid]"
1.3,–,–,"Cc1c(COC(C)(C)C(=O)NCc2ccc(C(=O)O)cc2)nn(-c2ccccc2Cl)c1-c1ccc(C(F)(F)F)cc1 [Example 13, 4-({2-[1-(2-Chloro-phenyl)-4-methyl-5-(4-trifluoromethyl-phenyl)-1H-pyrazol-3-ylmethoxy]-2-methyl-propionylamino}-methyl)-benzoic acid]"
